Assay results from paper PMC8150775, “Repositioning Azelnidipine as a Dual Inhibitor Targeting CD47/SIRPα and TIGIT/PVR Pathways for Cancer Immuno-Therapy” (Biomolecules, 2021).

Columns and labels:
CT26 tumors = assay: CT26 tumor model with ex vivo T cell analysis; type: in vivo, BALB/c mice; details: for Spleen CD8+IFN-γ (%): splenocytes
Description: BABL/c mice were subcutaneously (s.c.) injected with 2 × 10^5 CT26 cells on the right back, and C57BL/6 mice were injected with 1 × 10^6 MC38 cells. One week later, tumor-bearing mice were randomized into indicated groups, and intraperitoneal (i.p.) injected with azelnidipine or normal saline every day for two weeks. Tumor volumes were measured every other day by the (a) length, (b) width, and (c) height and calculated as volume (V) = a × b × c/2. For the combinational model of azelnidipine and radiotherapy (RT), MC38 tumor-bearing mice received irradiation (IR) when the tumors reached 80–100 mm^3. The mice received one dose of 20 Gy irradiation at the tumor local site, and followed by the treatment of azelnidipine.
Tumor-bearing mice were sacrificed at the end of the treatment. The tumors were dissected and digested into single cell with an enzyme cocktail of 100 U/mL collagenase IV; and Dnase I. The infiltration of CD8^+ T cells at the tumor site was detected by flow cytometry by staining of anti-mouse CD45, anti-mouse CD3, anti-mouse CD8α or isotype control. The MDSCs at the tumor site were analyzed by staining of anti-mouse CD45, anti-mouse CD11b, anti-mouse Ly6C, and anti-mouse Ly6G. Spleens and draining lymph nodes were grinded and filtered into a single cell suspension. The tumor-infiltrating lymphocytes (TILs) isolated by Percoll-gradient centrifugation, splenocytes, and cells from draining lymph nodes were also performed the intracellular cytokine staining assays. The cells were stimulated with or without 20 ng/mL of phorbol 12-myristate 13-acetate (PMA, Sigma-Aldrich, St. Louis, MO, USA) and 1 µM ionomycin (Sigma-Aldrich) with the presence of protein transport inhibitor cocktail (eBioscience) for 4 h. The surface marker CD3, CD8, and the intracellular cytokine marker IFN-γ were sequentially stained according to the Foxp3/Transcription Factor Staining Buffer Set (00-5523, eBioscience). The frequency of IFN-γ secreting CD8^+ T cells were counted according to the fluorescence minus one (FMO) control with the isotype control of IFN-γ antibody.
Figure 6 The antitumor effects of azelnidipine in CT26 tumor model. (A) CT26 tumor-bearing mice were i.p. administrated with 2 or 5 mg/kg of azelnidipine each day for 2 weeks as in the schematic diagram. (B) Tumor growth curve of CT26 tumor-bearing mice treated with normal saline or azelnidipine (n = 7). *, p < 0.05, ***, p < 0.001.Two-way ANOVA with Tukey’s multiple-comparisons test were conducted. (C) Representative flow cytometry plots and summary data of the frequency of CD8^+ T cells in the tumor tissues. Representative intracellular IFN-γ staining plots and summary data of the tumor infiltrating CD8^+ T cells (D), tumor-draining lymph node cells (E) and splenocytes (F). The frequency of IFN-γ secreting CD8^+ T cells were counted according to the fluorescence minus one (FMO) control with the isotype control of IFN-γ antibody. *, p < 0.05, **, p < 0.01, Student’s t-test were conducted. TEXT PRINTED IN THE PICTURE: (C) NS: Tumor CD3^+CD8^+ (%): 6.27 | (C) Azelnidipine: Tumor CD3^+CD8^+ (%): 7.46 (2 mg/kg); Tumor CD3^+CD8^+ (%): 9.35 (5 mg/kg) | (D) NS: Tumor CD8^+IFN-γ (%): 14.8 | (D) Azelnidipine: Tumor CD8^+IFN-γ (%): 12.4 (2 mg/kg); Tumor CD8^+IFN-γ (%): 20.0 (5 mg/kg) | (E) NS: dLN CD8^+IFN-γ (%): 0.45 | (E) Azelnidipine: dLN CD8^+IFN-γ (%): 0.53 (2 mg/kg); dLN CD8^+IFN-γ (%): 1.10 (5 mg/kg) | (F) NS: Spleen CD8^+IFN-γ (%): 5.32 | (F) Azelnidipine: Spleen CD8^+IFN-γ (%): 7.71 (2 mg/kg); Spleen CD8^+IFN-γ (%): 7.91 (5 mg/kg) DOUBTS OF THE COPYIST ABOUT THIS PICTURE: Panels C-F: the flow plots are headed only 'NS', '2 mg/kg' and '5 mg/kg'. The name 'Azelnidipine' is taken from panels A and B of the same picture. / Panels C-F: the numbers in the flow plots have no measure or unit beside them. The measure (e.g. 'CD3^+CD8^+ (%)') and the tissue ('Tumor', 'dLN', 'Spleen') are taken from the bar chart in the same panel. / NS is the control group. […]

CD47/SIRPα interaction = target: T1, CD47/SIRPα interaction (Homo sapiens, UniProt P78324); assay: Blocking assay by flow cytometry, preliminary screening at a single concentration, CD47/SIRPα; type: binding; details: preliminary test, single concentration of 100 μM
T1 construct: purchased ACRO Biosystem SIA-H5251; host or cells: CHOK1-CD47 cells (lenti-viral transfection)
T1 sequence (P78324 31-370 limits assumed): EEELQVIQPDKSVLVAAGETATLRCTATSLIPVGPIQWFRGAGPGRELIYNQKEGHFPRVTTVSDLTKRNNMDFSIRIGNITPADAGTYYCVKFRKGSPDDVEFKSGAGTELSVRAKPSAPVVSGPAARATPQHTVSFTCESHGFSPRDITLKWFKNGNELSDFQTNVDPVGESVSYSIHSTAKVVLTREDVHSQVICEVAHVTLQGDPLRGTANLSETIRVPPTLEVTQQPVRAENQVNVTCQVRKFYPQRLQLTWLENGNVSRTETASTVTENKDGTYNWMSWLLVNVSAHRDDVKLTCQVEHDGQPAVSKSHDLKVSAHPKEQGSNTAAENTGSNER
Description: The abilities of small molecule inhibitors (SMIs) (purchased from TargetMol, Shanghai, China) to block the binding of SIRPα protein to CHOK1-CD47 cells or PVR protein to CHOK1-TIGIT cells were determined by flow cytometry, as previously reported. The SMIs at indicated concentrations were incubated with Fc-tagged SIRPα or PVR protein for 30 min at 4°C, followed by incubating with the indicated cells for another 30 min. Human SIRPα protein (SIA-H5251, ACRO Biosystem, Beijing, China), mouse SIRPα protein (SIA-M5258, ACRO Biosystem, Beijing, China), human PVR protein (CD5-H82F6, ACRO Biosystem, Beijing, China), and mouse PVR protein (50259-M03H, Sino Biological, Beijing, China) were used. PE-conjugated anti-human IgG antibody was used to detect the Fc protein bind to cells. Cells incubated with the Fc proteins and anti-human IgG antibody without the SMIs serve as the positive control. The mean fluorescent intensity (MFI) of each sample was detected and recorded by a flow cytometry. The blocking efficacy of the SMIs was calculated as the equation: (MFI of the positive control-MFI of the SMI)/MFI of the positive control × 100%.
The small molecule inhibitor could not only bind to the target; most importantly, it should interfere with the receptor–ligand interactions. Subsequently, the candidate inhibitors were screened by the blocking assays with the established CD47 and TIGIT over-expressing cell lines. The test was initialed with a preliminary screening of the candidates with a single concentration (Figure 2D). Generally, the SMI blocking efficacy to the CD47/SIRPα interaction was much higher than that of the TIGIT/PVR. […] Therefore, the SMI-F11 and SMI-F17 may exert dual blocking effects in the CD47/SIRPα and TIGIT/PVR pathways. Blocking assays with a concentration gradient of the SMI were further performed to validate the preliminary screening. […] The similar blocking assays with the mouse CD47 and TIGIT over-expressing cells were also performed. […] Considering that most pairs of the immune checkpoints interact with the corresponding ligand in parallel forms, the blocking assays with the PD-1/PD-L1 interaction system was also conducted to test the specificity.

CC1=C(C(=O)OC(C)C)C(c2cccc([N+](=O)[O-])c2)C(C(=O)OC2CN(C(c3ccccc3)c3ccccc3)C2)=C(N)N1 (stereo not shown) [Azelnidipine]
Spleen CD8+IFN-γ (%) (CT26 tumors; 2 mg/kg i.p. (low dosage)): enhance
Spleen CD8+IFN-γ (%) (CT26 tumors; 5 mg/kg i.p. (high dosage)): significantly boost
dLN CD8+IFN-γ (%) (CT26 tumors; 5 mg/kg i.p. (high dosage), tumor-draining lymph node): significantly boost
CT26 tumor growth (CT26 tumors; 2 and 5 mg/kg i.p. each day for 2 weeks): significantly restrict
IFN-γ secretion function of the tumor infiltrating CD8+ T cells (CT26 tumors; dose not given): enhanced
frequency of CD8+ T cells in the tumor tissues (CT26 tumors; dose not given): remarkably increase
blocking efficacy, CD47/SIRPα interaction (CD47/SIRPα interaction): more than 50%
